# From patent US20020177120A1, “ASSAYS FOR APOTOSIS MODULATORS” (priority 1999, published 2002)
# Assays:
# Assay type in all cases: cell-based, human
# [1] = test system: HEK293 cells; test: Annexin V apoptotic membrane assay in SAT-reporter-transformed HEK293 cells; conditions: staurosporin, 4 hrs.
# From the text: A test system was constructed to evaluate SAT reporter expression and feasibility of detecting FRET signal changes in mammalian cells in microtiter assays. The human embryonic kidney-derived HEK293 cell line was chosen as a host because of its relatively high transfection efficiency, rapid growth, easy maintenance and suitability for microplate assay formats. In preliminary experiments in which HEK293 cells were transfected with pcDNA3-Emerald, transformed cells were fluorescent and there was no loss of fluorescence, or obvious detrimental effects on cell morphology or growth, in a selected pool of cells (i.e., mixed populations of cells) over the course of one month. […] Optimal conditions for transfection of HEK 293 cells with SAT-reporter plasmid were determined. Cells transfected using LIPOFECTAMINE (Life Technologies) and selected in G418 (Life Technologies) expressed full-length SAT reporter protein as determined by western analysis of transformed HEK293 cells after two weeks of in vitro selection. […] Under these conditions of treatment with staurosporin only about half of the SAT-reporter-transformed HEK293 cells in the population were apoptotic at 4 hrs. as determined using the Annexin V assay (Materials and Methods). […]
# [2] = test system: caspase-3; test: Inducibility and kinetics of apoptosis in U-138 cells (caspase-3 activity, inter-nucleosomal DNA fragmentation)
# Method: DNA Fragmentation ELISA: Apoptosis-induced inter-nucleosomal fragmentation of chromosomal DNA was quantified using the “Cell Death Detection ELISA^PLUS” (Boehringer Mannheim) according to the manufacturer's instructions. Briefly, ˜10^4 cells/well were plated on a poly-D-lysine-coated 96-well plate and treated for various periods of times with different apoptosis-inducing agents. The cells were lysed and the nuclei and membranes were pelleted. An aliquot of the cytoplasm-containing supernatant was then transferred to a streptavidin-coated microtiter plate and incubated with anti-histone-biotin and anti-DNA-peroxidase, resulting in the formation of “sandwich” antibody complexes, i.e., (anti-DNA-peroxidase)-(nucleosomal-DNA-containing-histone) -(anti-histone-biotin)-(streptavidin-microtiter plate). Unbound antibody was removed by washing. Peroxidase substrate (i.e., ABTS) was added and nucleosomal DNA complexes quantified by spectrophotometric analysis of the colored peroxidase reaction product.
# Caspase-3 Assay: Caspase-3 activity was assayed according to the following protocol. Cells plated and treated as above were washed in 1×PBS and lysed in 1×assay buffer (1 mM DTT, 1% Triton X-100, 0.5% Tween-20 in 1×PBS, pH 7.2). […] Fluorescence readings were taken on the Cytofluor II plate reader (excitation 360 nm, emission 460 nm, 6 reads/well, gain 50).
# [3] = test system: U-138 cells; test: FRET signal in SAT-transfected U-138 cells; conditions: pcDNA3VH-SAT transfected U-138 parental cultures
# From the text: Stable expression of the SAT reporter in U-138 cells was investigated by transfecting cultures with pcDNA3VH-SAT using calcium phosphate (Materials and Methods), and then selecting in medium containing G418 ([…]). […] The parental culture showing the strongest fluorescence and best growth characteristics was subcloned. Unexpectedly, the ability of the subclones to produce a staurosporin-inducible change in FRET signal was not stable, i.e., disappearing at passages 9, 11 and 13, but then reappearing at passage 16. While it was speculated that this phenomena may have resulted from some difference in expression and/or regulation of apoptosis or FRET reporter in sub-cultures of cells, these properties were not considered desirable and these SAT-transfected U-138 cell lines were discontinued in hopes that an improved reporter construct might solve the problem of irreproducibility.
# [4] = test system: F10-24-2 control cells; test: FRET reporter control assay in F10-24-2 (SnAT) cells
# From the text: Transfection of pcDNA3VH-SgAT and pcDNA3VH-SnAT into U-138 cells (using methods described above) resulted initially in few colonies and FRET signal was lost in many clones during expansion, however, from among the various subclones the F9-1-13 (pcDNA3VH-SgAT transfected; ATCC No. PTA-84) and F10-24-2 (pcDNA3-SnAT transfected) subclones were eventually expanded and shown to express stable FRET signals. As desired, the FRET signal expressed in F9-1-13 decreased in response to both staurosporin and anti-Fas antibody treatment of cells, while the FRET signal expressed by the F10-24-2 control cells, (i.e., lacking a caspase substrate domain), was unaffected following staurosporin or anti-Fas antibody treatment. […] F9-1-13 therefore appeared suitable for microtiter assays, and perhaps use in HTS assays for screening to identify and select modulators of apoptosis.
smiles,measurement,setting,value
CN[C@@H]1C[C@H]2O[C@@](C)([C@@H]1OC)n1c3ccccc3c3c4c(c5c6ccccc6n2c5c31)C(=O)NC4 [staurosporin],cells in the population apoptotic (Annexin V assay),[1],about half
same,time at which caspase-3 activity and inter-nucleosomal DNA fragmentation were maximally altered,"[2]; 5 μM staurosporin, minimal at 4 hrs., intermediate by 8 hrs.",16 to 24 h
same,inducibility of caspase-3 activity,"[2]; 30-300 μM etoposide or 1.5-15.0 μM staurosporin, 8 hrs.",inducible with staurosporin
same,"FRET signal change, correlated with FRET reporter cleavage in western blot",[3],induced changes in FRET signal
same,FRET signal response to inducer treatment,[4]; reporter lacking a caspase substrate domain,unaffected
same,FRET reporter western blot before and after induction of apoptosis,[4]; staurosporin induction,no visible difference
